Publication PMC12541610 (Acta Pharmaceutica Sinica. B, 2025)

Target: ATP synthase F1 subunit alpha (ATP5A1) (Mus musculus, UniProt Q03265)
Test: intrinsic fluorescence titration of purified protein
Format: binding

Sequence of ATP synthase F1 subunit alpha (ATP5A1) (Q03265 whole entry): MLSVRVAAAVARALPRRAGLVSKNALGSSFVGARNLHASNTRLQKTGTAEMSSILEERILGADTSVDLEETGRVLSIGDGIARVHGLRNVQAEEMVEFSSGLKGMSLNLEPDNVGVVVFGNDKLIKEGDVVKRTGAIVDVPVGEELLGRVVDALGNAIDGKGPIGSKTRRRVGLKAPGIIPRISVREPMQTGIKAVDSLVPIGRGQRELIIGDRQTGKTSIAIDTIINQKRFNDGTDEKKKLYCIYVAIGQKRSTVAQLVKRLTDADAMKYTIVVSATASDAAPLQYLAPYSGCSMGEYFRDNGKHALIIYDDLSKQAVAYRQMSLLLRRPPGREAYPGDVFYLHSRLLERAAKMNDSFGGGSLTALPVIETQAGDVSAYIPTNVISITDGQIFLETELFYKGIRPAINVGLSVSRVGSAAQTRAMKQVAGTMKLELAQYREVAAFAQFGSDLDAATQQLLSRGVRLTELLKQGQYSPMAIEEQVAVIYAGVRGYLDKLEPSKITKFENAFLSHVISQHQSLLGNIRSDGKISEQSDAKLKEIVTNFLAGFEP

SMILES: C=C(C)[C@@H]1CCC(C)=C[C@H]1c1c(O)cc(CCCCC)cc1O [Cannabidiol]
- Kd: 4.9 ± 1.2 µM
